Source: ChEMBL document CHEMBL1201862, “PubChem BioAssay data set” (2004)
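Following 48 hours of exposure in 96-well plates, responses at five concentrations were used to interpolate endpoints linearly. Abbreviation: GI50, concentration required for 50% inhibition of growth.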 Calls of active or inactive are those of the source. Rule as the data show it: active = GI50 up to about 1.1 µM and inactive = higher.

Columns and labels:
Experiment in all cases: NCI-60 cell line screen, 48 h
[1] = system: MDA-N
[2] = system: K562
[3] = system: KM12
[4] = system: HCT-116
[5] = system: U-251
[6] = system: SNB-19
[7] = system: UO-31
[8] = system: SN12C
[9] = system: NCI-H522
[10] = system: NCI-H460
[11] = system: HCT-15
[12] = system: OVCAR-3
[13] = system: IGROV-1
[14] = system: SF-268
[15] = system: HCC 2998
[16] = system: SF-295
[17] = system: NCI/ADR-RES
[18] = system: SR
[19] = system: RPMI-8226

Row | SMILES | GI50 [1] | GI50 [2] | GI50 [3] | GI50 [4] | GI50 [5] | GI50 [6] | GI50 [7] | GI50 [8] | GI50 [9] | GI50 [10] | GI50 [11] [µM] | GI50 [12] | GI50 [13] | GI50 [14] | GI50 [15] | GI50 [16] | GI50 [17] | GI50 [18] | GI50 [19]
1 | O=C1N/N=C\Nc2ccc(cc2)S(=O)(=O)c2ccc(cc2)/N=C\NNC1=O | > 100 µM (inactive) | > 100 µM (inactive) | > 100 µM (inactive) | > 100 µM (inactive) | > 100 µM (inactive) | > 100 µM (inactive) | > 100 µM (inactive) | > 100 µM (inactive) | > 100 µM (inactive) | > 100 µM (inactive) | > 100 | > 100 µM (inactive) | > 100 µM (inactive) | > 100 µM (inactive) | > 100 µM (inactive) | > 100 µM (inactive) | > 100 µM (inactive) | – | –
2 | COC(=O)[C@@H]1[C@@H](c2cccc(Cl)c2)[C@H](C(=O)OC)C2(C[C@@]1(C)O)NCCS2 (stereo not given in full) | 86.1 µM (inactive) | 25.6 µM (inactive) | 48.8 µM (inactive) | 42.5 µM (inactive) | > 100 µM (inactive) | 83.9 µM (inactive) | > 100 µM (inactive) | 47.9 µM (inactive) | 24.2 µM (inactive) | 48.4 µM (inactive) | 82.6 | 31.3 µM (inactive) | 62.5 µM (inactive) | > 100 µM (inactive) | – | > 100 µM (inactive) | 91.6 µM (inactive) | – | –
3 | C=C1C(=O)O[C@@H]2O[C@@]3(C)CC[C@H]4[C@H](C)CC[C@@H]1[C@@]24O3 [DEOXYARTEMISITENE] | 13.7 µM (inactive) | 3.56 µM (inactive) | 4.19 µM (inactive) | 10.8 µM (inactive) | 43.4 µM (inactive) | 47.2 µM (inactive) | 19.3 µM (inactive) | 19 µM (inactive) | 6.58 µM (inactive) | 22.3 µM (inactive) | 10.9 | 22.2 µM (inactive) | 3.38 µM (inactive) | 28.1 µM (inactive) | 21.9 µM (inactive) | 27.1 µM (inactive) | – | 7.18 µM (inactive) | 6.37 µM (inactive)
4 | OCCOCn1nncc1Cn1ncc2c(O)ncnc21 | – | 43.6 µM (inactive) | 32.6 µM (inactive) | > 100 µM (inactive) | > 100 µM (inactive) | > 100 µM (inactive) | > 100 µM (inactive) | > 100 µM (inactive) | 60.8 µM (inactive) | 49.4 µM (inactive) | > 100 | 28.6 µM (inactive) | > 100 µM (inactive) | > 100 µM (inactive) | > 100 µM (inactive) | > 100 µM (inactive) | > 100 µM (inactive) | – | –
5 | Cc1c2c(OCCN3CCCCC3)nn(C)c(=O)c2c(C)n1-c1ccccc1 | 35.1 µM (inactive) | 27.7 µM (inactive) | 32.7 µM (inactive) | 38.6 µM (inactive) | 49.2 µM (inactive) | 77.1 µM (inactive) | 12.2 µM (inactive) | 56.1 µM (inactive) | 26.7 µM (inactive) | 39.2 µM (inactive) | 32 | 77.6 µM (inactive) | 70.5 µM (inactive) | 53.1 µM (inactive) | 28.1 µM (inactive) | 21.2 µM (inactive) | 42.4 µM (inactive) | – | 23.6 µM (inactive)
6 | CC1(C)C(=O)N(O)C(C)(C)N1N=O | – | > 10 µM (inactive) | > 10 µM (inactive) | > 10 µM (inactive) | > 10 µM (inactive) | > 10 µM (inactive) | > 10 µM (inactive) | > 10 µM (inactive) | > 10 µM (inactive) | > 10 µM (inactive) | > 10 | > 10 µM (inactive) | – | > 10 µM (inactive) | > 10 µM (inactive) | > 10 µM (inactive) | > 10 µM (inactive) | > 10 µM (inactive) | 1.89 µM (inactive)
7 | CN[C@@H](C)[C@@H](N)c1ccccc1 | – | > 100 µM (inactive) | – | > 100 µM (inactive) | > 100 µM (inactive) | > 100 µM (inactive) | > 100 µM (inactive) | > 100 µM (inactive) | > 100 µM (inactive) | > 100 µM (inactive) | > 100 | > 100 µM (inactive) | > 100 µM (inactive) | – | > 100 µM (inactive) | > 100 µM (inactive) | – | – | > 100 µM (inactive)
8 | CCOC(=O)CCC(NC(=O)c1ccc(N2CCN(c3c(C)nc(N)nc3N)CC2)cc1)C(=O)OCC (stereo not given) | 12.9 µM (inactive) | < 0.01 µM (active) | 1.43 µM (inactive) | 0.0527 µM (active) | 0.0845 µM (active) | 0.514 µM (active) | > 100 µM (inactive) | > 22.5 µM (inactive) | 11 µM (inactive) | 6.53 µM (inactive) | 3.36 | > 21.2 µM (inactive) | 0.113 µM (active) | 0.757 µM (active) | 10.6 µM (inactive) | – | 7.43 µM (inactive) | – | 1.76 µM (inactive)
9 | O=[N+]([O-])c1ccc(C2NC(=S)NC3c4cc([N+](=O)[O-])ccc4CCCC23)cc1 (stereo not given) | – | > 100 µM (inactive) | > 100 µM (inactive) | > 100 µM (inactive) | 44.9 µM (inactive) | 40.9 µM (inactive) | 63.8 µM (inactive) | > 100 µM (inactive) | 69.7 µM (inactive) | > 100 µM (inactive) | > 100 | 40.7 µM (inactive) | 36.9 µM (inactive) | 46.8 µM (inactive) | > 100 µM (inactive) | 46.6 µM (inactive) | > 100 µM (inactive) | > 100 µM (inactive) | 58.9 µM (inactive)
10 | CC1(C)CN(CC(=O)O)CC(Cc2ccc(OCC(=O)O)cc2)N(CC(=O)O)CC(C)(C)SS1 (stereo not given) | > 100 µM (inactive) | > 100 µM (inactive) | > 100 µM (inactive) | > 100 µM (inactive) | > 100 µM (inactive) | > 100 µM (inactive) | > 100 µM (inactive) | > 100 µM (inactive) | > 100 µM (inactive) | > 100 µM (inactive) | > 100 | > 100 µM (inactive) | > 100 µM (inactive) | > 100 µM (inactive) | > 100 µM (inactive) | > 100 µM (inactive) | > 100 µM (inactive) | – | > 100 µM (inactive)
11 | Cc1cccc(Nc2cnc(N)nc2N)c1 | > 100 µM (inactive) | > 100 µM (inactive) | > 100 µM (inactive) | > 100 µM (inactive) | > 100 µM (inactive) | > 100 µM (inactive) | 90.2 µM (inactive) | > 100 µM (inactive) | > 100 µM (inactive) | – | > 100 | > 100 µM (inactive) | > 100 µM (inactive) | – | > 100 µM (inactive) | > 100 µM (inactive) | > 100 µM (inactive) | – | > 100 µM (inactive)
12 | COC(=O)[C@@H](NC(=O)N(CCC#N)CCCN(C(=O)N[C@H](Cc1ccccc1)C(=O)OC)c1ccccc1)C(C)C | 95.3 µM (inactive) | – | > 100 µM (inactive) | > 100 µM (inactive) | > 100 µM (inactive) | > 100 µM (inactive) | 97.5 µM (inactive) | > 100 µM (inactive) | 40.4 µM (inactive) | – | 86.3 | 57.8 µM (inactive) | 59.3 µM (inactive) | 84.1 µM (inactive) | 47.3 µM (inactive) | > 100 µM (inactive) | > 100 µM (inactive) | – | 25.1 µM (inactive)
13 | CC(C)(C)OC(=O)N[C@H]1CC2(C=C(Cl)C(=O)C(Cl)=C2)OC1=O | 17.1 µM (inactive) | 2.46 µM (inactive) | 17.7 µM (inactive) | 14.8 µM (inactive) | 20.7 µM (inactive) | > 100 µM (inactive) | 18.8 µM (inactive) | 18.5 µM (inactive) | 3.07 µM (inactive) | 24.3 µM (inactive) | 14.2 | 14.8 µM (inactive) | 18.7 µM (inactive) | 17.3 µM (inactive) | 16.6 µM (inactive) | 21.9 µM (inactive) | – | 1.93 µM (inactive) | 2.65 µM (inactive)
14 | CCOC(=O)NC1C2CC(=O)OC(O2)C1OC(C)=O (stereo not given) | – | > 100 µM (inactive) | > 100 µM (inactive) | > 100 µM (inactive) | > 100 µM (inactive) | > 100 µM (inactive) | 60.7 µM (inactive) | 99.3 µM (inactive) | > 100 µM (inactive) | > 100 µM (inactive) | > 100 | > 100 µM (inactive) | 59.7 µM (inactive) | > 100 µM (inactive) | > 100 µM (inactive) | > 100 µM (inactive) | – | > 100 µM (inactive) | > 100 µM (inactive)
15 | C[C@@H](NC1CCCC[C@H]1O)c1ccccc1 (stereo not given in full) | – | > 100 µM (inactive) | > 100 µM (inactive) | > 100 µM (inactive) | > 100 µM (inactive) | > 100 µM (inactive) | > 100 µM (inactive) | > 100 µM (inactive) | > 100 µM (inactive) | > 100 µM (inactive) | > 100 | > 100 µM (inactive) | > 100 µM (inactive) | > 100 µM (inactive) | > 100 µM (inactive) | > 100 µM (inactive) | – | – | > 100 µM (inactive)
16 | COc1cc2c(/C=C3/C(=O)N(C)c4ccc(O)cc43)c(Cl)[nH]c2cc1C | – | 0.124 µM (active) | 0.356 µM (active) | 0.361 µM (active) | 0.402 µM (active) | 0.456 µM (active) | 1.64 µM (inactive) | 0.776 µM (active) | 0.404 µM (active) | 0.454 µM (active) | 0.426 | 0.246 µM (active) | 0.733 µM (active) | 2.07 µM (inactive) | 0.373 µM (active) | 0.262 µM (active) | 0.703 µM (active) | 0.133 µM (active) | 0.35 µM (active)
